Test system: hepatitis C virus replicon NK-R2AN in Huh-7 cells
Assay: microbe, parasite or virus in culture
Type: cell-based
Conditions: Huh-7 cells containing replicon NK-R2AN, 48 hours, renilla luciferase activity relative to protein amount, read-out: HCV replicon inhibitory activity (EC50)

SMILES	EC50 [nM]
Cc1sc2nc(N3CCN(C(=O)c4cccnc4)CC3)nc(Nc3ccc(N4CCOCC4)nc3)c2c1C [Example 5, 4-[5,6-dimethyl-4-(6-morpholinopyridin-3-ylamino)-thieno[2,3-d]pyrimidin-2-yl]-piperazin-1-yl-pyridin-3-yl-methanone]	510
Cc1sc2nc(N3CCN(C(=O)c4cccnc4)CC3)nc(Nc3ccc(N4CCOCC4)cc3)c2c1C [Example 2, 4-[5,6-dimethyl-4-(4-morpholin-4-yl-phenylamino)-thieno[2,3-d]pyrimidin-2-yl]-piperazin-1-yl-pyridin-3-yl-methanone]	450
Cc1sc2nc(N3CCN(C(=O)c4ccncc4)CC3)nc(Nc3ccc(N4CCOCC4)cc3)c2c1C [Example 3, 4-[5,6-dimethyl-4-(4-morpholin-4-yl-phenylamino)-thieno[2,3-d]pyrimidin-2-yl]-piperazin-1-yl-pyridin-4-yl-methanone]	480
Cc1sc2nc(N3CCN(C(=O)c4ccccn4)CC3)nc(Nc3ccc(N4CCOCC4)cc3)c2c1C [Example 1, 4-[5,6-dimethyl-4-(4-morpholin-4-yl-phenylamino)-thieno[2,3-d]pyrimidin-2-yl]-piperazin-1-yl-pyridin-2-yl-methanone]	680
Cc1sc2nc(N3CCN(C(=O)c4ccccn4)CC3)nc(Nc3ccc(N4CCOCC4)nc3)c2c1C [Example 4, 4-[5,6-dimethyl-4-(6-morpholinopyridin-3-ylamino)-thieno[2,3-d]pyrimidin-2-yl]-piperazin-1-yl-pyridin-2-yl-methanone]	710

Source: patent publication US7816351B2, “5,6-dimethylthieno[2,3-di] pyrimidine derivatives, the preparation method thereof and the pharmaceutical composition comprising the same for anti-virus” (Equispharm Co., Ltd, priority 2005, dated 2010)
